Laboratory results as given in patent publication US20130072385A1, “METHODS FOR DELAYING BUD BREAK BY APPLYING ABA ANALOGS” (priority 2011, published 2013).

Columns and labels:
Canadice grapevines = assay: Soil drench of potted grapevines near the time of bud break, Canadice; format: in vivo
Protocol: (§1) A study was conducted to determine the effect of ABA applied to the soil of potted grapevines near the time of bud break. Eco-dormant bare-root Seyval Blanc and Canadice grapevines were purchased from Concord Nurseries, North Collins, N.Y. Vines were planted in pots of Promix potting mixture and held in a 5° C. dark chamber prior to treatment. Plants were moved from the 5° C. chamber to a greenhouse set to 20° C. night/25° C. day with a 12 hour light and 12 hour dark light cycle to promote bud break. One group of 5 plants was treated with 250 ml of 1000 ppm ABA (250 mg) as a soil drench 2 days after moving the vines to warm conditions. Another group of vines was treated 6 days after warming and another group of 5 plants was treated 10 days after warming. With the Seyval Blanc grapevines one group of 5 plants was treated at all 3 timings 2, 6, and 10 days after warming (750 mg total). Another group of 5 vines was not treated and acted as an untreated control. […]

perennial plant = assay: Applicants' field studies over several years on perennial plant bud break; format: in vivo; conditions: even at high levels, at every application time
Excerpt: In order to determine the role ABA had on perennial plant bud break, Applicants conducted field studies for several years. After many experiments.

Concord grapevines = assay: Fall soil drench of potted Concord grapevines, bud break the following spring; format: in vivo; conditions: 1000 ppm (1000 mg/pot) fall soil drench
Protocol: A study was conducted to determine the effect of application of ABA or ABA analog as a soil drench in the fall on bud break of potted Concord grapevines the following spring. Two year old eco-dormant Concord grapevines were obtained from a Concord Nurseries in the spring. Bare-root vines were planted in 14 liter pots filled with Promix BX (available from Premier Horticulture Inc. Quakertown, Pa.) and grown outside for about 5 months (May October) prior to treatment. Plants received irrigation as needed and fertilized weekly (1 g/L all purpose fertilizer 20-20-20, The Scotts Company, Marysville, Ohio). Uniform plants were selected for the study. A total of 1000 mL of water or chemical solution was applied to the soil of each plant.
After chemical treatment, the ten replicate plants per treatment were arranged in a randomized complete block experimental design. The potted vines were surrounded by bark chips the depth of the soil in the pot to insulate the roots and prevent cold damage. The plants became dormant for the winter. In the following spring the vines were pruned to 5 buds per vine before bud break and bud break was monitored over time (Table 4). The buds were rated for bud break periodically on a scale from 1 for no growth to 6 for three or more leaves showing
Potted Concord grapevines were treated with 1000 mL water, solution containing 1000 mg ABA or solution containing 100 mg PBI-429. The dose of RBI-429 was used at one-tenth of ABA dose based on the preliminary results.

Seyval Blanc grapevines = assay: Soil drench of potted grapevines near the time of bud break, Seyval Blanc; format: in vivo
Protocol: as §1

Concord grape vines = assay: Spring spray of eco-dormant field grown Concord grape vines, bud break; format: in vivo, Concord grapevines; conditions: sprayed 2 times in spring
Protocol: A study was conducted to evaluate the effect of spraying eco-dormant Concord grape vines with ABA or ABA analog plus surfactants on bud break. Mature field grown Concord grape vines were sprayed to runoff 2 times in the spring after pruning and before bud swell. Three replicates of 3 vines each were treated with each treatment solution. Treatments were arranged in a randomized complete block design down a single vineyard row, Bud break was monitored by counting the number of broken buds of the distal 5 buds on 4 proximal canes on the middle vine of each 3 vine replicate. Bud break was only very slightly delayed by any of the treatments compared to the water sprayed control (Table 1).

PF-11 nectarine trees = assay: Fall foliar spray of PF-11 nectarine trees, fruit number per tree the following spring; format: in vivo; conditions: 10,000 ppm in 0.1% Brij 98, fall foliar application; June 10
Protocol: A study was conducted to determine the effect of spraying nectarine trees with ABA or ABA analogs in the fall on bud break the following spring. Mature PF-11 nectarine trees were sprayed to drip with surfactant alone or surfactant and ABA or ABA analog on Oct. 19, 2009. Trees were sprayed with approximately 500 ml (20.5 grams ABA analog/acre) applied to each of 6 trees per treatment arranged in a randomized complete block design. The following spring bud break on pre-selected branches was monitored.

[1] = 1000 ppm soil drench 2 days after warming, evaluated 13 days after warming
[2] = 1000 ppm soil drench 2 days after warming, evaluated 14 days after warming
[3] = 1000 ppm soil drench 2 days after warming, evaluated 15 days after warming
[4] = 1000 ppm soil drench 2 days after warming, evaluated 16 days after warming
[5] = 1000 ppm soil drench 6 days after warming, evaluated 13 days after warming
[6] = 1000 ppm soil drench 6 days after warming, evaluated 14 days after warming
[7] = 1000 ppm soil drench 6 days after warming, evaluated 15 days after warming
[8] = 1000 ppm soil drench 6 days after warming, evaluated 16 days after warming
[9] = 1000 ppm soil drench 10 days after warming, evaluated 13 days after warming
[10] = 1000 ppm soil drench 10 days after warming, evaluated 14 days after warming
[11] = 1000 ppm soil drench 10 days after warming, evaluated 15 days after warming
[12] = 1000 ppm soil drench 10 days after warming, evaluated 16 days after warming

Substance: (S)-5-(1-hydroxy-2,6,6)-trimethyl-4-oxo-2-cyclohexen-1-yl)-3-methyl-(2 Z,4E)-pentadienoic acid [ABA]
- Average number of broken buds per vine (Canadice grapevines; [1]): 0
- Average number of broken buds per vine (Canadice grapevines; [2]): 0
- Average number of broken buds per vine (Canadice grapevines; [3]): 0.8
- Average number of broken buds per vine (Canadice grapevines; [4]): 1.2
- Average number of broken buds per vine (Canadice grapevines; 1000 ppm soil drench 2 days after warming, evaluated 17 days after warming): 1.7
- Average number of broken buds per vine (Canadice grapevines; 1000 ppm soil drench 2 days after warming, evaluated 18 days after warming): 1.7
- Average number of broken buds per vine (Canadice grapevines; [5]): 0.2
- Average number of broken buds per vine (Canadice grapevines; [6]): 0.7
- Average number of broken buds per vine (Canadice grapevines; [7]): 1.2
- Average number of broken buds per vine (Canadice grapevines; [8]): 1.7
- Average number of broken buds per vine (Canadice grapevines; 1000 ppm soil drench 6 days after warming, evaluated 17 days after warming): 2.3
- Average number of broken buds per vine (Canadice grapevines; 1000 ppm soil drench 6 days after warming, evaluated 18 days after warming): 2.5
- Average number of broken buds per vine (Canadice grapevines; [9]): 0.5
- Average number of broken buds per vine (Canadice grapevines; [10]): 1.8
- Average number of broken buds per vine (Canadice grapevines; [11]): 2.3
- Average number of broken buds per vine (Canadice grapevines; [12]): 2.3
- Average number of broken buds per vine (Canadice grapevines; 1000 ppm soil drench 10 days after warming, evaluated 17 days after warming): 2.3
- Average number of broken buds per vine (Canadice grapevines; 1000 ppm soil drench 10 days after warming, evaluated 18 days after warming): 2.7
- Effect on bud break (perennial plant): no appreciable effect on bud break
- Average rating of bud break (1-6 scale) (Concord grapevines; Apr. 23, 2008): 1.0
- Average rating of bud break (1-6 scale) (Concord grapevines; April 28): 1.6
- Average rating of bud break (1-6 scale) (Concord grapevines; April 30): 1.8
- Average rating of bud break (1-6 scale) (Concord grapevines; May 2): 1.8
- Average rating of bud break (1-6 scale) (Concord grapevines; May 5): 2.1
- Average rating of bud break (1-6 scale) (Concord grapevines; May 7): 2.6
- Average rating of bud break (1-6 scale) (Concord grapevines; May 9): 2.9
- Average rating of bud break (1-6 scale) (Concord grapevines; May 12): 3.0
- Average rating of bud break (1-6 scale) (Concord grapevines; May 14): 3.0
- Average rating of bud break (1-6 scale) (Concord grapevines; May 16): 3.4
- Average rating of bud break (1-6 scale) (Concord grapevines; May 19): 4.2
- Average rating of bud break (1-6 scale) (Concord grapevines; May 21): 4.6
- Average rating of bud break (1-6 scale) (Concord grapevines; May 23): 4.9
- Average rating of bud break (1-6 scale) (Concord grapevines; May 28): 5.4
- Average number of broken buds per vine (Seyval Blanc grapevines; 1000 ppm soil drench 2, 6 and 10 days after warming, evaluated 13 days after warming): 1.2
- Average number of broken buds per vine (Seyval Blanc grapevines; 1000 ppm soil drench 2, 6 and 10 days after warming, evaluated 14 days after warming): 4.4
- Average number of broken buds per vine (Seyval Blanc grapevines; 1000 ppm soil drench 2, 6 and 10 days after warming, evaluated 15 days after warming): 4.8
- Average number of broken buds per vine (Seyval Blanc grapevines; 1000 ppm soil drench 2, 6 and 10 days after warming, evaluated 16 days after warming): 7.0
- Delay of bud break (Seyval Blanc grapevines; 1000 ppm soil drench 13-16 days before bud break, cultivar not stated (Seyval Blanc and Canadice study)): 3.5 days
- Average number of broken buds per vine (Seyval Blanc grapevines; [1]): 0.4
- Average number of broken buds per vine (Seyval Blanc grapevines; [2]): 2.2
- Average number of broken buds per vine (Seyval Blanc grapevines; [3]): 3.6
- Average number of broken buds per vine (Seyval Blanc grapevines; [4]): 6.8
- Average number of broken buds per vine (Seyval Blanc grapevines; [5]): 0.2
- Average number of broken buds per vine (Seyval Blanc grapevines; [6]): 1.6
- Average number of broken buds per vine (Seyval Blanc grapevines; [7]): 2.6
- Average number of broken buds per vine (Seyval Blanc grapevines; [8]): 6.8
- Average number of broken buds per vine (Seyval Blanc grapevines; [9]): 1.8
- Average number of broken buds per vine (Seyval Blanc grapevines; [10]): 6.0
- Average number of broken buds per vine (Seyval Blanc grapevines; [11]): 8.6
- Average number of broken buds per vine (Seyval Blanc grapevines; [12]): 11.4
- Average percent broken buds (Concord grape vines; April 24, 1,000 ppm ABA plus 0.5% Brij 98): 8%
- Average percent broken buds (Concord grape vines; April 24, 1,000 ppm plus 0.5% Pentrabark): 2%
- Average percent broken buds (Concord grape vines; April 24, 10,000 ppm ABA plus 0.5% Brij 98): 5%
- Average percent broken buds (Concord grape vines; April 30, 1,000 ppm ABA plus 0.5% Brij 98): 13%
- Average percent broken buds (Concord grape vines; April 30, 1,000 ppm plus 0.5% Pentrabark): 13%
- Average percent broken buds (Concord grape vines; April 30, 10,000 ppm ABA plus 0.5% Brij 98): 18%
- Average number of fruit per tree (PF-11 nectarine trees): 55
